As usually defined, the EC50 is the concentration that produces a half-maximal response.

The structures appear in SMILES notation.

For 48 compounds, EC50 results are on record in US20250223276A1, “Substituted Pyrrolidinyl And Piperidinyl Compounds And Related Methods Of Treatment” (Alkermes, Inc., priority 2022, published 2025).

This test concerns the target T1, human orexin-2 receptor (OX2R) (Homo sapiens, UniProt O43614).
T1 construct: expressed in transfected cells
T1 sequence (O43614 1-444): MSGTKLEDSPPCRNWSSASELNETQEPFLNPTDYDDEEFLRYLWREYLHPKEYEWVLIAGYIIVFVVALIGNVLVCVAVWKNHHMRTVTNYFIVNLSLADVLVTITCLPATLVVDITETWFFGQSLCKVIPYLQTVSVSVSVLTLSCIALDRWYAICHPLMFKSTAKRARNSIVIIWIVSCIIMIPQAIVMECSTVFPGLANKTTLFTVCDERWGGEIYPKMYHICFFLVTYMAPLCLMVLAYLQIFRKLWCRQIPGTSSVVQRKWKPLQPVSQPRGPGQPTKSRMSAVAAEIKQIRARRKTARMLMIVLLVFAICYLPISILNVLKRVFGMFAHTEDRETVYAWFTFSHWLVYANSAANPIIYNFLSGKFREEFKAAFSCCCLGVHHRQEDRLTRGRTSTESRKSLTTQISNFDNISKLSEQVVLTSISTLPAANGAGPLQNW
The test can be described thus: Human OX2R IP1 assay. In kind it is cell-based. The settings on record: T-Rex CHO cells stably overexpressing human OX2R; IP1 (inositol monophosphate) accumulation, HTRF; 1 hr at 37 degrees C. The procedure: T-Rex CHO cells stably overexpressing the human orexin-2 receptor (OX2R) are induced overnight with 1 μg/mL of doxycycline in a T225 flask. 24 hours post induction, cells are lifted with accutase and plated into a 384-well proxy plate at 30,000 cells/well. Cells are then treated with different test compounds in 1× stimulation buffer containing 10 mM Hepes, 1 mM CaCl2), 0.5 mM MgCl2, 4.2 mM KCl, 146 mM NaCl, 5.5 mM glucose, and 50 mM LiCl, pH 7.4, for 1 hr at 37 degrees C. Following incubation, the reaction is terminated by the addition of detection mix, which is composed of IP1-d2 and anti-IP1-cryptate diluted in lysis buffer as well as 1× stimulation buffer. The plates are allowed to incubate for 1 hour at room temperature and are then read in the En Vision® multimode plate reader, measuring inositol phosphate levels.
Cisbio IP1 is a cell-based functional assay quantifying the accumulation of inositol monophosphate (IP), a metabolite released as a result of orexin 2 receptor activation through the phospholipase C-Gq signaling pathway. This is a competitive immunoassay in which the IP1 produced by the cells upon receptor activation competes with the IP1 analog coupled to the d2 fluorophore (acceptor) for binding to an anti-IP1 monoclonal antibody labeled with Eu cryptate (donor). The measured HTRF-FRET based signal is inversely proportional to the IP1 concentration produced.
The EC50 values reported in Table 2 were obtained according to the human OX2R IP1 assay described above. Data are the mean EC50 values±S.E.M.
On the technique in general: Time-resolved FRET reads energy transfer from a long-lived donor to a nearby acceptor.
Take `O=S(=O)(N[C@H]1CCN(c2cccnn2)C[C@H]1CO[C@H]1CC[C@@H](c2cccc(F)c2)CC1)N1CCOCC1` [Compound 15]: the EC50 was over 1000 nM.
Compound `CN(C)S(=O)(=O)N[C@H]1CCN(C(=O)[C@H]2C[C@@H](F)C2)C[C@H]1CO[C@H]1CC[C@@H](c2cccc(F)c2)CC1` [Compound 53] yielded an EC50 of under 100 nM.
Then `CN1CC(OC(=O)N2CC[C@H](NS(=O)(=O)N(C)C)[C@H](CO[C@H]3CC[C@@H](c4cccc(F)c4)CC3)C2)C1` [Compound 59], with over 1000 nM; and `CS(=O)(=O)N[C@H]1CCN(C(=O)[C@H]2CCOC2)C[C@H]1CO[C@H]1CC[C@@H](c2cccc(F)c2)CC1` [Compound 7], with under 100 nM.
The result for `CC1CN(S(=O)(=O)N[C@H]2CCN(c3cccnn3)C[C@H]2CO[C@H]2CC[C@@H](c3cccc(F)c3)CC2)C1` [Compound 23] reads over 1000 nM; that for `CC(C)S(=O)(=O)N[C@H]1CCN(c2cccnn2)C[C@H]1CO[C@H]1CC[C@@H](c2cccc(F)c2)CC1` [Compound 21], under 100 nM.
The result for `CN(C)S(=O)(=O)N[C@H]1CCN(C(=O)[C@H]2C[C@H](F)C2)C[C@H]1CO[C@H]1CC[C@@H](c2cccc(F)c2)CC1` [Compound 54] reads under 100 nM; that for `CN1CC(NS(=O)(=O)N[C@H]2CCN(c3cccnn3)C[C@H]2CO[C@H]2CC[C@@H](c3cccc(F)c3)CC2)C1` [Compound 33], over 1000 nM; that for `O=S(=O)(N[C@H]1CCN(c2cccnn2)C[C@H]1CO[C@H]1CC[C@@H](c2cccc(F)c2)CC1)N1CCC(F)(F)C1` [Compound 29], over 1000 nM.
Compound `CN(C)S(=O)(=O)N[C@H]1CCN(C(=O)OC2CC2)C[C@H]1CO[C@H]1CC[C@@H](c2cccc(F)c2)CC1` [Compound 60] returned an EC50 of over 1000 nM.
Consider `CN(C)S(=O)(=O)N[C@H]1CCN(C(=O)c2cnco2)C[C@H]1CO[C@H]1CC[C@@H](c2cccc(F)c2)CC1` [Compound 44], for which the EC50 was under 100 nM.
The result for `O=S(=O)(N[C@H]1CCN(c2cccnn2)C[C@H]1CO[C@H]1CC[C@@H](c2cccc(F)c2)CC1)N1CCCC1` [Compound 26] reads over 1000 nM; that for `O=S(=O)(N[C@H]1CCN(c2cccnn2)C[C@H]1CO[C@H]1CC[C@@H](c2cccc(F)c2)CC1)N1CC(C(F)F)C1` [Compound 25], over 1000 nM.
Consider `CN(C)S(=O)(=O)N[C@H]1CCN(C(=O)OCC2(F)CCC2)C[C@H]1CO[C@H]1CC[C@@H](c2cccc(F)c2)CC1` [Compound 66], for which the EC50 was over 1000 nM.
`CNS(=O)(=O)N[C@H]1CCN(c2cccnn2)C[C@H]1CO[C@H]1CC[C@@H](c2cccc(F)c2)CC1` [Compound 3] had an EC50 of under 100 nM.
Regarding `O=S(=O)(N[C@H]1CCN(c2cccnn2)C[C@H]1CO[C@H]1CC[C@@H](c2cccc(F)c2)CC1)C1CC1` [Compound 10], the EC50 is under 100 nM.
`CN(C)S(=O)(=O)N[C@H]1CCN(C(=O)OCC(F)F)C[C@H]1CO[C@H]1CC[C@@H](c2cccc(F)c2)CC1` [Compound 48]: the EC50 is under 100 nM.
`CC(C)N(C)[C@H]1CCN(S(=O)(=O)N[C@H]2CCN(c3cccnn3)C[C@H]2CO[C@H]2CC[C@@H](c3cccc(F)c3)CC2)C1` [Compound 56] had an EC50 of over 1000 nM.
The result for `CN(C)S(=O)(=O)N[C@H]1CCN(C(=O)N2CCOCC2)C[C@H]1CO[C@H]1CC[C@@H](c2cccc(F)c2)CC1` [Compound 55] reads under 100 nM; that for `CN(C)S(=O)(=O)N[C@H]1CCN(C(=O)N2CC(F)(F)C2)C[C@H]1CO[C@H]1CC[C@@H](c2cccc(F)c2)CC1` [Compound 62], under 100 nM; that for `CN(C)S(=O)(=O)N[C@H]1CCN(C(=O)c2ccnn2C)C[C@H]1CO[C@H]1CC[C@@H](c2cccc(F)c2)CC1` [Compound 49], over 1000 nM.
The result for `CN(C)S(=O)(=O)N[C@H]1CCN(C(=O)OCC2(F)CC2)C[C@H]1CO[C@H]1CC[C@@H](c2cccc(F)c2)CC1` [Compound 58] reads over 1000 nM; that for `CN(C)S(=O)(=O)N[C@H]1CCN(C(=O)c2cncs2)C[C@H]1CO[C@H]1CC[C@@H](c2cccc(F)c2)CC1` [Compound 45], under 100 nM.
The result for `O=S(=O)(NC1CC1)N[C@H]1CCN(c2cccnn2)C[C@H]1CO[C@H]1CC[C@@H](c2cccc(F)c2)CC1` [Compound 17] reads 100 to 1000 nM.
Consider `CN(C)S(=O)(=O)N[C@H]1CCN(C(=O)c2cncn2C)C[C@H]1CO[C@H]1CC[C@@H](c2cccc(F)c2)CC1` [Compound 46], for which the EC50 was in the range of 100 to 1000 nM.
Then `O=S(=O)(N[C@H]1CCN(c2cccnn2)C[C@H]1CO[C@H]1CC[C@@H](c2cccc(F)c2)CC1)N1CC(Cl)C1` [Compound 31], with over 1000 nM; and `O=S(=O)(N[C@H]1CCN(c2cccnn2)C[C@H]1CO[C@H]1CC[C@@H](c2cccc(F)c2)CC1)C1CCC1` [Compound 20], with over 1000 nM.
In turn, `CN(C1CC1)S(=O)(=O)N[C@H]1CCN(c2cccnn2)C[C@H]1CO[C@H]1CC[C@@H](c2cccc(F)c2)CC1` [Compound 9] came in with an EC50 of 100 to 1000 nM.
For `CN(C)C1CN(S(=O)(=O)N[C@H]2CCN(c3cccnn3)C[C@H]2CO[C@H]2CC[C@@H](c3cccc(F)c3)CC2)C1` [Compound 30], the EC50 is over 1000 nM.
For `O=S(=O)(N[C@H]1CCN(c2cccnn2)C[C@H]1CO[C@H]1CC[C@@H](c2cccc(F)c2)CC1)N1CC2(COC2)C1` [Compound 34], the EC50 is over 1000 nM.
`COCCN(C)S(=O)(=O)N[C@H]1CCN(c2cccnn2)C[C@H]1CO[C@H]1CC[C@@H](c2cccc(F)c2)CC1` [Compound 63]: the EC50 is over 1000 nM.
`CN(C)S(=O)(=O)N[C@H]1CCN(C(=O)N2CCC(F)(F)C2)C[C@H]1CO[C@H]1CC[C@@H](c2cccc(F)c2)CC1` [Compound 61] came in with an EC50 of under 100 nM.
As to `O=S(=O)(N[C@H]1CCN(c2cccnn2)C[C@H]1CO[C@H]1CC[C@@H](c2cccc(F)c2)CC1)N1CC(F)C1` [Compound 18], the EC50 was in the range of 100 to 1000 nM.
In turn, `CN1CC2(C1)CN(S(=O)(=O)N[C@H]1CCN(c3cccnn3)C[C@H]1CO[C@H]1CC[C@@H](c3cccc(F)c3)CC1)C2` [Compound 27] came in with an EC50 of over 1000 nM.
`O=S(=O)(N[C@H]1CCN(c2cccnn2)C[C@H]1CO[C@H]1CC[C@@H](c2cccc(F)c2)CC1)N1CC(C(F)(F)F)C1` [Compound 22] displayed an EC50 of over 1000 nM.
Then `CN(C)S(=O)(=O)N[C@H]1CCN(C(=O)[C@@H]2CCOC2)C[C@H]1CO[C@H]1CC[C@@H](c2cccc(F)c2)CC1` [Compound 5], with under 100 nM; and `CN(C)S(=O)(=O)N[C@H]1CCN(C(=O)C2CNC(=O)C2)C[C@H]1CO[C@H]1CC[C@@H](c2cccc(F)c2)CC1` (stereo partly drawn) [Compound 52], with over 1000 nM; and `CCS(=O)(=O)N[C@H]1CCN(c2cccnn2)C[C@H]1CO[C@H]1CC[C@@H](c2cccc(F)c2)CC1` [Compound 19], with under 100 nM.
As for `CCN(CC)S(=O)(=O)N[C@H]1CCN(c2cccnn2)C[C@H]1CO[C@H]1CC[C@@H](c2cccc(F)c2)CC1` [Compound 14], the EC50 was over 1000 nM.
Regarding `CN(C)S(=O)(=O)N[C@H]1CCN(C(=O)C2(F)CC2)C[C@H]1CO[C@H]1CC[C@@H](c2cccc(F)c2)CC1` [Compound 47], the EC50 was under 100 nM.
Then `CN1CCN(S(=O)(=O)N[C@H]2CCN(c3cccnn3)C[C@H]2CO[C@H]2CC[C@@H](c3cccc(F)c3)CC2)CC1` [Compound 24], with over 1000 nM; and `O=S(=O)(N[C@H]1CCN(c2cccnn2)C[C@H]1CO[C@H]1CC[C@@H](c2cccc(F)c2)CC1)C(F)F` [Compound 11], with under 100 nM; and `O=S(=O)(N[C@H]1CCN(c2cccnn2)C[C@H]1CO[C@H]1CC[C@@H](c2cccc(F)c2)CC1)N1CC(CF)C1` [Compound 28], with over 1000 nM.
For `CC(C)N(C)[C@@H]1CCN(S(=O)(=O)N[C@H]2CCN(c3cccnn3)C[C@H]2CO[C@H]2CC[C@@H](c3cccc(F)c3)CC2)C1` [Compound 57], the EC50 is over 1000 nM.
Then `CS(=O)(=O)N[C@H]1CCN(C(=O)C2(F)CCC2)C[C@H]1CO[C@H]1CC[C@@H](c2cccc(F)c2)CC1` [Compound 6], with under 100 nM; and `CN(CCF)S(=O)(=O)N[C@H]1CCN(c2cccnn2)C[C@H]1CO[C@H]1CC[C@@H](c2cccc(F)c2)CC1` [Compound 64], with over 1000 nM; and `O=C(NC1CCN(c2cccnn2)CC1CO[C@H]1CC[C@@H](c2cccc(F)c2)CC1)C(F)(F)F` (stereo partly drawn) [Compound 67], with over 1000 nM.
Then `CC(C)OC(=O)N1CC[C@H](NS(=O)(=O)N(C)C)[C@H](CO[C@H]2CC[C@@H](c3cccc(F)c3)CC2)C1` [Compound 50], with 100 to 1000 nM.
